Legend:
[1] = tested on: human melanoma (HT168M1); test: subcutaneous melanoma tumor model; assay type: in vivo, CB17/scid mice; conditions: 40 mg/kg per os, once a day five days per week for 3 weeks from day 7; FIG. 8
Protocol: Slightly anesthetized (diethyl ether narcosis) adult male CB17/scid mice born with immunodeficiency were subcutaneously (s.c.) implanted with 8×10^5 cells from in vitro human melanoma (HT168M1) cultures. After tumor cell inoculation animals were randomly assigned into three groups and their ears were marked. From the 7th day after the tumor cell inoculation mice were treated once a day five days per week for 3 weeks with compound 2 (40 mg/kg), or with compound 3b (40 mg/kg) per os by gavage. Control animals were treated with appropriate dilution of the carrier (DMSO) in a similar manner with similar frequency. Body weight changes were monitored once a week for each animal. When subcutaneous tumor reached palpable size its dimensions were also detected with caliper. Tumor volume was estimated by the formula π/6×a×b^2, where “a” is the longer and “b” is the shorter diameter. 30 days after implantation animals were sacrificed by bleeding in Nembutal (75 mg/kg) anesthesia. Evaluation was based on the mass of the primary tumor.
In this experiment the effect of compound 2 and compound 3b was tested in oral administration at the same dose (40 mg/kg).

[2] = tested on: MCF7 (Human breast adenocarcinoma); test: cytotoxic effect on breast carcinoma cell line, MTS test, 24 hours; assay type: cell-based; conditions: 24 hours incubation, in the concentration range tested
Protocol: (§1) In these experiments HepG2 (human hepatocellular carcinoma) and MCF7 (Human breast adenocarcinoma) cells were used. They were cultured in the following media: For HepG2 Dulbecco's Modified Eagle Medium (D-MEM) (high glucose) (Gibco BRL, Carlsbad, Calif., USA), penicillin (50 IU/ml)-streptomycin ([…]), 10% fetal bovine serum; for MCF7 (Human breast adenocarcinoma) 1:1 mixture of Dulbecco's Modified Eagle Medium (D-MEM) (high glucose) (Gibco BRL, Carlsbad, Calif., USA) and Nutrient Mixture F-12 Ham (Sigma, St. Louis, Mo., USA), penicillin (50 IU/ml)-streptomycin ([…]), 10% fetal bovine serum. Experiments were performed as described in Example 9. with the difference that the incubation time was 24 hours in this case. After the incubation period MTS test (3-(4,5-dimethylthiazol-2-yl)-5-(3-carboxymethoxyphenyl)-2-(4-sulfophenyl)-2H-tetrazolium) (Promega, Madison, Wis., USA) was performed as described above.

[3] = tested on: RAW.264.7 matured mice macrophages; test: MTS test of vitality / metabolic activity of the macrophages; assay type: cell-based
Protocol: In our experiments we investigated the early TNFα secretion of RAW.264.7 matured mice macrophages. This cell line stores large amount of preformed TNFα. […] Culture supernatant was collected and TNFα content was determined by R&D Duoset ELISA kit (detection limit<62.5 pg/ml). […] So the reduced TNFα level was due to inhibition of the release of preformed TNFα and not due to dying of the cells.
Effects of compound 3a and compound 3b on TNFα secretion and on NF-kappaB activation could have been based on cytotoxicity as well. To exclude that, we determined the metabolic activity of the cells, which is proportional to the cell number, by MTS test 8 hours after the treatment.

[4] = tested on: HepG2 (human hepatocellular carcinoma); test: cytotoxic effect on hepatocellular carcinoma cell line, MTS test, 24 hours; assay type: cell-based; conditions: 24 hours incubation, already at 20 and 50 μM concentrations
Protocol: as §1

[5] = tested on: TNFα; test: late phase (transcriptionally induced) TNFα secretion of macrophages, ELISA; assay type: cell-based, mice; conditions: preformed TNFα washed away after 4 hours, TNFα of next 4 hours; FIG. 3
Protocol: For the detection of late phase TNFα secretion the preformed TNFα, released after LPS induction of the macrophages, was washed away after 4 hours, and the amount of TNFα produced during the next 4 hours was determined by ELISA test. […] Results are depicted in FIG. 3.

CCNc1c(F)c(F)c2c(c1F)C(=O)N(c1c(C(C)C)cccc1C(C)C)C2=O [Compound 3b, 2-(2,6-diisopropylphenyl)-5-(ethylamino)-4,6,7-trifluoroisoindole-1,3-dione]
effect on growth of the subcutaneous primary tumor (tumor mass) [1]: significantly (p=0.05) reduced tumor size
effect on MCF7 cells [2]: weak effect
vitality of the cells (MTS test) ([3]; 3 hours after the stimulation with LPS): no cell death was detected
metabolic activity of the cells (MTS test) ([3]; 8 hours after the treatment): not found to be toxic
effect on HepG2 cells [4]: strong effect
late TNFα secretion of macrophages [5]: inhibited late TNFα secretion of macrophages in a concentration dependent way

Reference: patent publication US8232299B2, “Phthalimide derivatives that influence cellular vesicular systems, pharmaceutical compositions, and use thereof” (Avidin Kft., priority 2007, dated 2012)
